The source of these data is PMC11611271, “Rapid prediction of key residues for foldability by machine learning model enables the design of highly functional libraries with hyperstable constrained peptide scaffolds” (PLOS Computational Biology, 2024).

One assay relates to CD8α/β. The assay can be described thus: phage spot ELISA on CD8α/β. In kind it is binding. The conditions noted are these: for S/N: phage spot ELISA signal/noise; for ELISA: phage spot ELISA signal. An excerpt: (§1) To determine the performance of the libraries for ligand discovery we chose a panel of eight protein targets, which have no structural homology and a wide mass range (Fig 7C). We screened these eight targets with solution panning strategy and two additional plate panning for CD8α/β and CD28, thus ten panning campaigns in total. We consider clones showing spot phage ELISA signal > 0.3 and signal/noise ratio > 2 as positive hits. At least one binding hit was discovered for nine out of the ten panning campaigns, surpassing the success rate of the best DCP scaffolds reported previously. We also obtained the NGS data for these screening and the ranking of clones for their enrichment along the rounds of screening was analyzed and considered the top-ranking clones as potential hits. Based on their sequence diversity we selected 16 potential hits spanning five protein targets for peptide synthesis in their linear form. Seven of these are hits with positive phage ELISA signal and nine were selected based on NGS ranking without spot ELISA available. Subsequently, we conducted in vitro folding experiments on these peptides in various buffers. We observed a strong propensity for spontaneous folding regardless of the buffer condition. All HCP hits tested successfully folded into three-disulfide-containing product within two days in a universal buffer system (PBS, pH 7.4, 50% DMSO) without the need for a redox pair, as shown in Fig 8A. The binding of these folded peptides to their respective target proteins was confirmed using SPR (Table 4 and S1 Data) and binding kinetics are exemplified by the high-affinity peptide 5ji4-CRD7-2 (see Fig 8B). Among seven selected ELISA-positive hits, all of them were successfully synthesized and in vitro folded with three disulfide bonds and five were proven to be validated binders by SPR (Table 4). Nine peptides selected from the NGS ranking were synthesized and folded with the expected number of disulfide bonds and five of them bound to their target with affinities in the μM range as determined by SPR (Table 4). In general, binding affinities for these SPR-validated initial hits are weak, with Kd values in the micromolar range and fast on- and off-rates. There are two exceptions with binding affinities in the nanomolar range.
(§2) The 5ji4 libraries were constructed following the Kunkel mutagenesis method and the solution panning protocol was followed as previously described. After four to five rounds of binding selection, while eluted pool was subjected to NGS analysis, individual phage clones were also picked and analyzed with phage spot ELISA. Positive clones were subjected to SANGER sequencing.
For orientation: An ELISA detects its analyte on a solid surface through an enzyme-linked reagent.

The subject of a further assay is RSP02. The assay can be described thus: phage spot ELISA on RSP02. In kind it is binding. The note with it: for S/N: phage spot ELISA signal/noise; for S/N / ELISA: S3 Table sheet RSP02; for ELISA: phage spot ELISA signal.
Excerpt: as §1, §2

The next assay concerns CD8α. As to the kind of experiment: phage spot ELISA on CD8α. In kind it is binding. The note with it: S3 Table sheet CD8α.
Excerpt: as §1, §2

For assay [1], the target named is T1, CD8α-Fc (UniProt P01732 22-182).
T1 construct: CD8 alpha chain, bought as Fc fusion; captured on a Protein A sensor chip by its Fc; source: bought: R&D, #AVI10927
T1 sequence (P01732 22-182): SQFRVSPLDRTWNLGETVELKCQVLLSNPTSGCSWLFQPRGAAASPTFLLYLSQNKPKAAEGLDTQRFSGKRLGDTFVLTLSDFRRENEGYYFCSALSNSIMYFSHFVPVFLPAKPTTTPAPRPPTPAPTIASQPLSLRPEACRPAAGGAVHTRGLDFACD
The assay can be described thus: SPR; Biacore S200, Fc-fusion target on Sensor Chip Protein A, peptide flowed, single-cycle kinetics, three-fold dilution series from approximately 100 μM, 25°C, 30 μl/min, HBS-EP with 5% DMSO; 1:1 binding (kinetic) model, or no binding seen. The conditions noted are these: both partners purified. (SPR reads the build-up and loss of mass on a sensor chip optically.)

Assay [2] concerns the target T1, CD8α-Fc. As to the kind of experiment: SPR; Biacore S200, Fc-fusion target on Sensor Chip Protein A, peptide flowed, single-cycle kinetics, three-fold dilution series from approximately 100 μM, 25°C, 30 μl/min, HBS-EP with 5% DMSO; steady-state equilibrium model. The note with it: both partners purified.
The target of assay [3] is VEGF_(8-109) (UniProt P15692). The assay can be described thus: ELISA; phage spot ELISA of individual phage clones after panning; clones with signal > 0.3 and signal/noise ratio > 2 counted as positive hits.
The target in assay [4] is VEGF_(8-109) (UniProt P15692). The assay can be described thus: SPR; Biacore S200, target on Series S Sensor Chip SA, peptide flowed, single-cycle kinetics, three-fold dilution series from approximately 100 μM, 25°C, 30 μl/min, HBS-EP with 5% DMSO; 1:1 binding (kinetic) model.
Where [5] appears, read: S3 Table sheet CD8αβ-2 (panning campaign 2).
The mark [6] stands for this setting: S3 Table sheet CD8αβ-1 (panning campaign 1).

Where a SMILES comes first, the peptide text is derived from it. Bridges are numbered along the chain shown (N, C = ends).

For the molecule “PCECLMIAVMLVRPSSEECERLCRKLGVTNCRVHCG [CD8αβ-2 clone 3, phage clone, 5JI4 library, CD8αβ-2 panning]”, in the assay on CD8α/β (setting [5]), the S/N stood at 1.6 and the ELISA turned out to be 0.223.

In the assay on CD8α/β (setting [5]), “PCECDYPVYHDDYKSSEECERLCRKLGVTNCRVHCG [CD8αβ-2 clone 1, phage clone, 5JI4 library, CD8αβ-2 panning]” came in with a S/N of 27.2 and an ELISA of 3.534.

In the assay with RSP02, “PCECIVRWTTKQLESSEECERLCRKLGVTNCRVHCG [RSP02 clone 2, phage clone, 5JI4 library, RSP02 panning]” yielded a S/N of 1.515 and an ELISA of 0.2.

As to “PCECDVHGETYTVSSSEEGTSVPTWLISLCRVHCG [CD8αβ-1 clone 2, phage clone, 5JI4 library, CD8αβ-1 panning]”, in the assay on CD8α/β (setting [6]), the S/N stood at 34.8 and the ELISA is given as 3.031.

Consider “PCECEQPYRDDPDKSSEECERLCRKLGVTNCRVHCG [RSP02 clone 4, phage clone, 5JI4 library, RSP02 panning]”, for which, in the assay on RSP02, the S/N came to 1.788 and the ELISA is reported as 0.177.

In the assay with RSP02, “PCECVRLSTGRYVKSSEECERLCRKLGVTNCRVHCG [RSP02 clone 5, phage clone, 5JI4 library, RSP02 panning]” had a S/N of 1.706 and an ELISA of 0.216.

In the assay with RSP02, “PCECDVNGETYTVSSSEECEPLCWMYNEHFCRVHCG [RSP02 clone 6, phage clone, 5JI4 library, RSP02 panning]” yielded a S/N of 8.917 and an ELISA of 0.856.

In the assay on RSP02, “PCECTYKDDWQKGASSEECERLCRKLGVTNCRVHCG [RSP02 clone 1, phage clone, 5JI4 library, RSP02 panning]” had a S/N of 1.427 and an ELISA of 0.204.

For the molecule “PCECGPYHDDMDKTSSEECERLCRKLGVTNCRVHCG [CD8αβ-2 clone 2, phage clone, 5JI4 library, CD8αβ-2 panning]”, in the assay with CD8α/β (setting [5]), the S/N turned out to be 2.4 and the ELISA is 0.296.

In the case of “PCACDVNGETYTVSSSEECERLCTWWYFVVCRVHCG [CD8α clone 5, phage clone, 5JI4 library, CD8α panning]”, the S/N with CD8α (phage spot ELISA signal/noise) is on record as 3.0. In the assay with CD8α (phage spot ELISA signal), this molecule gave an ELISA of 0.282.

In the assay with CD8α/β (setting [6]), “PSECPNPPFEVRTWSSEECERLCRKLGVTNCVCG [CD8αβ-1 clone 1, phage clone, 5JI4 library, CD8αβ-1 panning]” came in with a S/N of 18.5 and an ELISA of 1.938.

For `CSCC[C@@H]1NC(=O)[C@H](Cc2c[nH]c3ccccc23)NC(=O)[C@@H]2CSSC[C@H](NC(=O)[C@H](Cc3ccccc3)NC(=O)[C@H](Cc3c[nH]cn3)NC(=O)[C@H](CCC(=O)O)NC(=O)[C@H](CC(N)=O)NC(=O)[C@H](Cc3ccc(O)cc3)NC1=O)C(=O)N[C@@H](CCCNC(=N)N)C(=O)N[C@@H](C(C)C)C(=O)N[C@@H](Cc1c[nH]cn1)C(=O)N[C@H](C(=O)NCC(N)=O)CSSC[C@H](NC(=O)[C@@H]1CCCN1C(C)=O)C(=O)N[C@@H](CCC(=O)O)C(=O)N[C@H]1CSSC[C@H](NC(=O)[C@H](CCC(=O)O)NC(=O)[C@H](CCC(=O)O)NC(=O)[C@H](CO)NC(=O)[C@H](CO)NC(=O)[C@H](CO)NC(=O)[C@H](C(C)C)NC(=O)[C@H]([C@@H](C)O)NC(=O)[C@H](Cc3ccc(O)cc3)NC(=O)[C@H]([C@@H](C)O)NC(=O)[C@H](CCC(=O)O)NC(=O)CNC(=O)[C@H](CC(N)=O)NC(=O)[C@H](C(C)C)NC(=O)[C@H](CC(=O)O)NC1=O)C(=O)N[C@@H](CCC(=O)O)C(=O)N1CCC[C@H]1C(=O)N[C@@H](CC(C)C)C(=O)N2` [5ji4-RSP-1] (Ac-PCECDVNGETYTVSSSEECEPLCWMYNEHFCRVHCG-NH2; disulfide 2-35, 4-19, 23-31; N-terminus and C-terminus assumed), the ELISA signal in the assay on RSP02 (phage spot ELISA of the clone, positive hit: signal > 0.3 and signal/noise > 2) was 0.58. For the same molecule, the ELISA s/n in the assay on RSP02 (phage spot ELISA signal/noise ratio) was found to be 5.22.

“PCECQPMSNWFDMISSEECERLCRKLGVTNCRVHCG [RSP02 clone 3, phage clone, 5JI4 library, RSP02 panning]”: in the assay with RSP02, the S/N was determined as 0.8496 and the ELISA was found to be 0.192.

B1: 5ji4-CD8-2 (peptide)
chain: H-PCECVWESFAHLPWSSEECERLCRKLGVTNCVCG-OH
modifications: disulfide (positions not given here); also: three disulfide bonds, pairing not given here
As to B1, the affinity in the assay with CD8α-Fc [1], expressed as Kd, was 4.2 ± 4.3 µM.

B2: 5ji4-CD8-22 (peptide)
chain: PCECLVTPYKDDYKSSEECERLCVWWLSTVCRVPCG
notes: clone from the 5JI4 scaffold phage libraries, picked by NGS ranking; free N- and C-termini; three disulfide bonds; source: synthetic peptide (CSBio), folded in vitro, HPLC purified
Take B2: in the assay with CD8α-Fc [2], the affinity, expressed as Kd, was 76.3 ± 35.7 µM.

B3: 5ji4-CD8-21 (peptide)
chain: PCECVWESFAHLPWSSEECERLCLNWLSSLCRVHCG
notes: as for B2
Regarding B3, in the assay with CD8α-Fc [1], the Kd (usually the constant that tells how readily two partners part at equilibrium) stood at 6 ± 2.2 µM.

In the case of PCECFMYDILVGLASSEECERLCRKLGVTNCRVHCG [5ji4-VEGF-2 displayed on M13 phage], in the assay with VEGF_(8-109) [3], the phage spot ELISA signal came out at 4.71 and the phage spot ELISA signal/noise (s/n) is 44.5.

As to PCECFMYDILVGLASSEECERLCRKLGVTNCRVHCG [5ji4-VEGF-2], the Kd with VEGF_(8-109) [4] was 6.8 µM.

Consider PCECDVNVETYTVSSSEECKRLCWGFGQSDCRVHCG [5ji4-VEGF-3 displayed on M13 phage], for which, in the assay with VEGF_(8-109) [3], the phage spot ELISA signal worked out at 3.07 and the phage spot ELISA signal/noise (s/n) was 32.2.

Consider PCECDVNVETYTVSSSEECKRLCWGFGQSDCRVHCG [5ji4-VEGF-3], for which the Kd with VEGF_(8-109) [4] was 0.12 µM.

B4: 5ji4-CD8-20 (peptide)
chain: PCECDVNGETYTVSSSEECERLCVWWLSTVCRVPCG
notes: as for B2
The molecule B4 showed a Kd in the assay with CD8α-Fc [2] of 23 ± 7 µM.
